These results are taken from patent US20220193386A1, “MICRONEEDLE ARRAYS FOR CANCER THERAPY APPLICATIONS” (University of Pittsburgh - Of the Commonwealth System of …, priority 2014, published 2022).

The subject of one data set is epidermal cells. Particulars: pyramidal CMC-microneedle arrays, 5 mg/g of CMC, arrays removed after 5 minutes, 72 hours of exposure. How it is done:
Cytoxan® was integrated at a concentration of 5 mg/g of CMC, enabling delivery of approximately about 140 μg per array. This is a therapeutically relevant concentration based on the area of skin targeted, yet well below levels associated with systemic toxicities. Living human skin organ cultures were used to assess the cytotoxicity of Cytoxan®. Cytoxan® was delivered by application of arrays to skin explants as we previously described. Arrays and residual material were removed 5 minutes after application, and after 72 hours of exposure, culture living skin explants were cryo-sectioned and fixed. Apoptosis was evaluated using green fluorescent TUNEL assay (In Situ Cell Death Detection Kit, TMR Green, Roche, cat #:11-684-795-910).

A further data set has as its system human skin. As to the kind of experiment: Apoptosis and necrosis in human skin at the doxorubicin MNA dose. Particulars: MNA dose of doxorubicin chosen for the B16 study.
A further data set concerns B16 melanoma. As to the kind of experiment: B16 melanoma model: MNA treatment of established cutaneous tumors, tumor growth and survival. Particulars: MNAs once weekly for three weeks, established B16 skin tumors; for tumor growth: vs untreated; for survival: untreated 100% mortality, through day 70.
Another data set relates to OVA. As to the kind of experiment: OVA-specific CTL activity in vivo after CMC-microneedle array immunization. Set-up: species or system mice. Particulars: pyramidal CMC-microneedle arrays on mouse ears, 5 minutes, boosted one week later. The text has this:
To directly evaluate the immunogenicity of CMC microneedle array incorporated antigens, the well characterized model antigen ovalbumin was used. Pyramidal arrays were fabricated incorporating either soluble ovalbumin (sOVA), particulate ovalbumin (pOVA), or arrays containing both pOVA along with CpGs. The adjuvant effects of CpGs are well characterized in animal models, and their adjuvanticity in humans is currently being evaluated in clinical trials.
Immunization was achieved by applying antigen containing CMC-microneedle arrays to the ears of anesthetized mice using a spring-loaded applicator as described above, followed by removal of the arrays 5 minutes after application. These pyramidal microneedle arrays contained about 5 wt % OVA in CMC and about 0.075 wt % (20 μM) CpG. As a positive control, gene gun based genetic immunization strategy using plasmid DNA encoding OVA was used.
Mice were immunized, boosted one week later, and then assayed for OVA-specific CTL activity in vivo. […] It is well established that similar responses require substantially higher doses of antigen when delivered by traditional needle injection.
To evaluate the stability of fabricated arrays, batches of arrays were fabricated, stored, and then used over an extended period of time. […]

Description for B16 melanoma: The B16 melanoma model was used as a model tumor to test these novel approaches.
B16 skin tumors were established in normal mice by injection. Visible established cutaneous tumors were treated once weekly for three weeks with MNAs containing either doxorubicin alone, Poly(I:C) alone, or doxorubicin and Poly(I:C) incorporated into the same MNA. […] Tumor growth and survival were measured regularly for the duration of the study.

For `O=P1(N(CCCl)CCCl)NCCCO1` (centres unmarked) [Cytoxan®, cyclophosphamide], the “apoptosis of epidermal cells (TUNEL)” value with epidermal cells is listed as “extensive apoptosis of epidermal cells”.

For the compound `COc1cccc2c1C(=O)c1c(O)c3c(c(O)c1C2=O)C[C@@](O)(C(=O)CO)C[C@@H]3O[C@H]1C[C@H](N)[C@H](O)[C@H](C)O1` [doxorubicin], the “apoptosis / necrosis in human skin” value with human skin was “induces apoptosis in human skin without causing necrosis”. Also, in the data set with B16 melanoma, the tumor growth entry is recorded as “slowed tumor growth” and the survival was 30%.

In the case of Poly(I:C), in the data set with B16 melanoma, the tumor growth entry is given as “slowed tumor growth” and the survival was found to be 50%.

For the compound “particulate OVA: particulate ovalbumin model antigen incorporated in pyramidal CMC microneedle arrays”, in the data set with OVA, the “OVA-specific CTL activity in vivo” value was “Significant OVA-specific CTL activity”.

“soluble OVA: soluble ovalbumin model antigen incorporated in pyramidal CMC microneedle arrays”: the “OVA-specific CTL activity in vivo” value in the data set on OVA is recorded as “Significant OVA-specific CTL activity”.
